Paper PMC10997755, “Discovery of a small-molecule inhibitor that traps Polθ on DNA and synergizes with PARP inhibitors” (Nature Communications, 2024)
“And” between values parts separate entries of the source, which are not always exact repeats. Equal values may be shown once. “Also recorded” adds a separate entry of the source.

Tests used:
Format in all cases: biochemical
EcoRI = target: T1, EcoRI (Escherichia coli, UniProt P00642); assay: EcoRI cleavage control in the absence of Polθ-pol; details: for cleavage %: EcoRI; for % cleavage: compound 10 µM
T1 construct: purchased New England Biolabs
T1 sequence (P00642 2-277 limits assumed): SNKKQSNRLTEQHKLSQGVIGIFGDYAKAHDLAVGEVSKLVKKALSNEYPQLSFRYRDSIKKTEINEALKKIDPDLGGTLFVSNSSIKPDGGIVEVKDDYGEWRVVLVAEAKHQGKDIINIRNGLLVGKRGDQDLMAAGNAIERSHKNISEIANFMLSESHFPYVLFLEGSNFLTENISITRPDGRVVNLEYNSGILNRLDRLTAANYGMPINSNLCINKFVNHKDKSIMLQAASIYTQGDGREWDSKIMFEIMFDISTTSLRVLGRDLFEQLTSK
Protocol: (§1) EcoRI and KpnI endonucleases assay: 25 nM 5’-^32P radiolabeled primer-template DNA Sc15-EcoRI (5’-^32P LM3-EcoRI/LM4-EcoRI) or Sc19-KpnI (5’-^32P LM11-Kpn/LM12-Kpn) in reaction buffer (25 mM Tris-HCl pH 7.5, 10 mM MgCl2, 10% glycerol, 0.1 mg/mL BSA, 0,01% igepal, 1 mM DTT) were incubated in the presence or in the absence of 50 nM Polθ-pol, 100 μM ddCTP, and 10 μM inhibitors, as indicated, for 5 min at room temperature. Next, 0.08 U/μL EcoRI or KpnI together with 500 nM “trapping” DNA Sc14 (RP559/RP702) were added and incubated for further 0–40 min at 30 °C as indicated. 10 nM PolθΔcen and FL-Polθ and 25 nM Sc15-EcoRI and Sc19-Kpn were probed with 0.04 U/μL EcoRI or KpnI (both from New England Biolabs) using the same conditions. Reactions were stopped by addition of formamide loading buffer with 50 mM EDTA, resolved in denaturing 20% urea PAAG and analyzed using Typhoon PhosphorImager (GE Amersham). Quantification was done in ImageQuant TL software. All quantified experiments were performed in triplicates and plotted as mean with ± s.d using GraphPad Prism 9 software.

Polθ-pol:DNA/DNA complex [1] = target: T2, Polθ-pol:DNA/DNA complex (Homo sapiens, UniProt O75417); assay: KpnI endonuclease protection assay; details: for i (%), normalized to 100%, ave(%) / i (%), replicates: 14 nt i; for i+1 (%) normalized to 100%, ave(%) / i+1 (%), replicates: 15 nt i+1
T2 construct: purified recombinant human Polθ-pol (comprising amino acid residues 1792–2590); made in house
T2 sequence (O75417 1792-2590): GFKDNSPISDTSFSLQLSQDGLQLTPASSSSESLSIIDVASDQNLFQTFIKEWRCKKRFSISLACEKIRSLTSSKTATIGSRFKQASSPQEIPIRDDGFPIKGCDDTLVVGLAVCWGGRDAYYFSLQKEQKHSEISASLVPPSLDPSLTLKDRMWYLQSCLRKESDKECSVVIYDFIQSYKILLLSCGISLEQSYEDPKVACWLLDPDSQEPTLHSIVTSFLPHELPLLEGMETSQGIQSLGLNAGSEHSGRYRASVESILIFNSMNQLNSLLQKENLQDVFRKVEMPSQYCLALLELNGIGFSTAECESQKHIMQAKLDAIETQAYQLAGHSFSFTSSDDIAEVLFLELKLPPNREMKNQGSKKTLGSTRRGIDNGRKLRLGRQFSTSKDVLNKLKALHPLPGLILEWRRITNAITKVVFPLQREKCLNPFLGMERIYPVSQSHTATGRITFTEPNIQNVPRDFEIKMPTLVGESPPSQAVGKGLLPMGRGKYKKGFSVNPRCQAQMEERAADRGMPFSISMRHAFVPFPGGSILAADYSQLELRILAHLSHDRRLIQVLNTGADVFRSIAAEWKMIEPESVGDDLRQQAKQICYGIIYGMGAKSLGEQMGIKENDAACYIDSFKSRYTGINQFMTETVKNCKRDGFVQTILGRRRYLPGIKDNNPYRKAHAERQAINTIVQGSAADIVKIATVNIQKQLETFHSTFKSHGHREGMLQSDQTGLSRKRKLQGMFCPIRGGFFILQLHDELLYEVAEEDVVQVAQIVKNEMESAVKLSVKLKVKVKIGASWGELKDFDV
Protocol: as §1

Polθ-pol:DNA/DNA complex [2] = target: T2, Polθ-pol:DNA/DNA complex; assay: EcoRI endonuclease protection assay; details: for EcoRI cleavage %, ave / EcoRI cleavage %, replicates #1-#3: Eco+pol+ddC+RTx compound; for i (%) (14 nt), replicates #1-#3 / i (%), normalized to 100%, ave(%) / i+1 (%) (15 nt), replicates #1-#3 / i+1 (%) normalized to 100%, ave(%): pol+ddC+compound;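 as to i+1 (%) (15 nt), replicates #1-#3: i+1 is one-nucleotide extended DNA within post-catalytic complexes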
Protocol: as §1

Polθ-pol = target: T3, Polθ-pol (Homo sapiens, UniProt O75417); assay: MMEJ in vitro assay
T3 construct: purified recombinant human Polθ-pol (comprising amino acid residues 1792–2590); made in house
T3 sequence (O75417 1792-2590): T2 sequence (O75417 1792-2590)
Protocol: For the MMEJ in vitro assay in the presence of RTx-161, 10 nM Polθ-pol was first mixed with DMSO (3% final concentration) or RTx-161 at indicated final concentrations 4–500 nM in reaction buffer (25 mM Tris-HCl pH 7.5, 10 mM MgCl2, 10% glycerol, 0.1 mg/mL BSA, 0,01% IGEPAL CA-630, 1 mM DTT) followed by incubation for 5 min at room temperature. MMEJ reactions were started by the addition of 50 μM dNTP and 25 nM 5’-^32P radiolabeled pssDNA (RP343/^32P-RP344), incubated for 15 min at 37 °C, stopped by the addition of denaturing formamide loading buffer with 50 mM EDTA, resolved in denaturing 20% PAGE and analyzed using Typhoon PhosphorImager (GE Amersham). Quantification was performed using ImageQuant TL software. For the MMEJ in vitro assay in the presence of MC160385, 0.2–10 μM MC160385, 10 nM Polθ-pol, 60 nM 5’-^32P radiolabeled pssDNA and 100 μM dNTPs were used. The reaction was performed as above and stopped by the Proteinase K treatment in 50 mM EDTA and 0.5% SDS. The products were resolved in native 12% PAGE at room temp and analyzed as above.

In the case of `CN(C(=O)Oc1c(N2CCN(CCO)C2=O)cc(C(F)(F)F)cc1C(F)(F)F)c1ccc(F)cc1` [RTx-161], the cleavage % (EcoRI; 3 min) is reported as 26.2%, the cleavage % (EcoRI; 6 min) is reported as 44.3% and the “inhibition of EcoRI activity” value (EcoRI; absence of Polθ-pol) is reported as “resistant to inhibition; also recorded: do not inhibit”. The “% cleavage” value (EcoRI; cleavage 3 min) was 26%, the “% cleavage” value (EcoRI; cleavage 6 min) was 44% and the “KpnI cleavage %, ave” value (Polθ-pol:DNA/DNA complex [1]; Kpn+pol+ddC+RTx161, 2.5min) was 0.667%. The “KpnI cleavage %, replicates” value (Polθ-pol:DNA/DNA complex [1]; Kpn+pol+ddC+RTx161, 2.5min) was 1.0% (2×) and 0.0%, the “KpnI cleavage %, ave” value (Polθ-pol:DNA/DNA complex [1]; Kpn+pol+ddC+RTx161, 5min) was 0.667% and the “KpnI cleavage %, replicates” value (Polθ-pol:DNA/DNA complex [1]; Kpn+pol+ddC+RTx161, 5min) was 1.0% (2×) and 0.0%. For the same molecule, the “KpnI cleavage %, ave” value (Polθ-pol:DNA/DNA complex [1]; Kpn+pol+ddC+RTx161, 10min) was 1.7%, the “KpnI cleavage %, replicates” value (Polθ-pol:DNA/DNA complex [1]; Kpn+pol+ddC+RTx161, 10min) was 2.0% (2×) and 1.0% and the “trapping of post-catalytic complexes, different sequence context” value (Polθ-pol:DNA/DNA complex [1]; KpnI) was “identical trapping”. The “i (%), normalized to 100%, ave(%)” value (Polθ-pol:DNA/DNA complex [1]; KpnI, pol+ddC+161, 2.5 min) was 100.0%, the “i (%), replicates” value (Polθ-pol:DNA/DNA complex [1]; KpnI, pol+ddC+161, 2.5 min) was 37.5% and 36.0% and 24.6% and the “i+1 (%) normalized to 100%, ave(%)” value (Polθ-pol:DNA/DNA complex [1]; KpnI, pol+ddC+161, 2.5 min) was 100.0%. For the same molecule, the “i+1 (%), replicates” value (Polθ-pol:DNA/DNA complex [1]; KpnI, pol+ddC+161, 2.5 min) was 53.1% and 51.8% and 59.1%, the “i (%), normalized to 100%, ave(%)” value (Polθ-pol:DNA/DNA complex [1]; KpnI, pol+ddC+161, 5 min) was 87.7% and the “i (%), replicates” value (Polθ-pol:DNA/DNA complex [1]; KpnI, pol+ddC+161, 5 min) was 33.9% and 31.6% and 20.7%. For the same molecule, the “i+1 (%) normalized to 100%, ave(%)” value (Polθ-pol:DNA/DNA complex [1]; KpnI, pol+ddC+161, 5 min) was 105.6%, the “i+1 (%), replicates” value (Polθ-pol:DNA/DNA complex [1]; KpnI, pol+ddC+161, 5 min) was 54.8% and 55.9% and 62.4% and the “i (%), normalized to 100%, ave(%)” value (Polθ-pol:DNA/DNA complex [1]; KpnI, pol+ddC+161, 10 min) was 67.8%. For the same molecule, the “i (%), replicates” value (Polθ-pol:DNA/DNA complex [1]; KpnI, pol+ddC+161, 10 min) was 26.7% and 24.4% and 15.5%, the “i+1 (%) normalized to 100%, ave(%)” value (Polθ-pol:DNA/DNA complex [1]; KpnI, pol+ddC+161, 10 min) was 114.7% and the “i+1 (%), replicates” value (Polθ-pol:DNA/DNA complex [1]; KpnI, pol+ddC+161, 10 min) was 61.3% and 62.1% and 64.7%. The “time Polθ-pol is trapped on DNA/DNA (EcoRI cleavage suppressed)” value (Polθ-pol:DNA/DNA complex [2]; 10 μM inhibitor, ddCTP) was > 10 min, the “EcoRI cleavage %, ave” value (Polθ-pol:DNA/DNA complex [2]; 2.5min) was 4.0% and the “EcoRI cleavage %, replicates #1-#3” value (Polθ-pol:DNA/DNA complex [2]; 2.5min) was 5.8% and 3.2% and 4.2%. The “EcoRI cleavage %, ave” value (Polθ-pol:DNA/DNA complex [2]; 5min) was 6.0%, the “EcoRI cleavage %, replicates #1-#3” value (Polθ-pol:DNA/DNA complex [2]; 5min) was 8.0% and 4.6% and 4.9% and the “EcoRI cleavage %, replicates #1-#3” value (Polθ-pol:DNA/DNA complex [2]; 10min) was 9.0% and 6.1% and 7.3%. For the same molecule, the “i (%) (14 nt), replicates #1-#3” value (Polθ-pol:DNA/DNA complex [2]; 2.5min) was 25.2% and 24.9% and 24.6%, the “i (%), normalized to 100%, ave(%)” value (Polθ-pol:DNA/DNA complex [2]; 2.5min) was 100.0% and the “i+1 (%) (15 nt), replicates #1-#3” value (Polθ-pol:DNA/DNA complex [2]; 2.5min) was 53.9% and 59.3% and 59.1%. For the same molecule, the “i+1 (%) normalized to 100%, ave(%)” value (Polθ-pol:DNA/DNA complex [2]; 2.5min) was 100.0%, the “i (%) (14 nt), replicates #1-#3” value (Polθ-pol:DNA/DNA complex [2]; 5min) was 21.5% and 21.2% and 20.7% and the “i (%), normalized to 100%, ave(%)” value (Polθ-pol:DNA/DNA complex [2]; 5min) was 85.0%. The “i+1 (%) (15 nt), replicates #1-#3” value (Polθ-pol:DNA/DNA complex [2]; 5min) was 55.1% and 61.3% and 62.4%, the “i+1 (%) normalized to 100%, ave(%)” value (Polθ-pol:DNA/DNA complex [2]; 5min) was 103.8% and the “i (%) (14 nt), replicates #1-#3” value (Polθ-pol:DNA/DNA complex [2]; 10min) was 11.4% and 15.0% and 15.5%. The “i (%), normalized to 100%, ave(%)” value (Polθ-pol:DNA/DNA complex [2]; 10min) was 56.1%, the “i+1 (%) (15 nt), replicates #1-#3” value (Polθ-pol:DNA/DNA complex [2]; 10min) was 66.5% and 64.8% and 64.7% and the “i+1 (%) normalized to 100%, ave(%)” value (Polθ-pol:DNA/DNA complex [2]; 10min) was 113.8%. The “inhibition of Polθ-pol MMEJ activity in vitro” value (Polθ-pol) was “concentration dependent inhibition”.
